According to US4973679A, “Process for oligonucleo tide synthesis using phosphormidite intermediates” (University Patents, Inc., priority 1986, dated 1990):

Assay: Lewis acid (ZnBr2) hydrolysis rates of triarylmethyl groups attached to the 5'-hydroxyl of deoxynucleosides
Format: physicochemical
Details: 0.08 M ZnBr2 in nitromethane; tlc, HCl vapors
Experimental: These compounds are listed in Tables IV and V. The 5'-triarylmethyldeoxynucleosides were treated with protic and Lewis acids using carefully controlled conditions. […] The rates are more variable -with protic acids.
The Lewis Acid Hydrolysis Rates of Triarylmethyl Groups
^1 Reaction conditions were 0.08 M ZnBr2 in nitromethane.
Aliquots were removed from the reaction solution, quenched with ammonium
acetate and analyzed visually after tlc and exposure to HCl vapors. Time

Row | Compound | t1/2 in ZnBr2 [s]
1 | Cc1ccc(C(OC[C@H]2O[C@@H](n3cnc4c(NC(=O)c5ccccc5)ncnc43)C[C@@H]2O)(c2ccccc2)c2ccccc2)cc1 [R1 = h; R2 = R3 = a; A] | 45
2 | Cc1cn([C@H]2C[C@H](O)[C@@H](COC(c3ccccc3)(c3ccc(F)cc3)c3cccc4ccccc34)O2)c(=O)[nH]c1=O (stereo partly shown) [R1 = n; R2 = e; R3 = a; T] | 60
3 | COc1ccc(C(OC[C@H]2O[C@@H](n3ccc(NC(=O)c4ccccc4)nc3=O)C[C@@H]2O)(c2ccccc2)c2ccc(OC)cc2)cc1 [R1 = R2 = c; R3 = a; C] | 45
4 | COc1ccc(C(OC[C@H]2O[C@@H](n3cc(C)c(=O)[nH]c3=O)C[C@@H]2O)(c2ccccc2)c2cccc3ccccc23)cc1 (stereo partly shown) [R1 = n; R2 = c; R3 = a; T] | 60
5 | COc1ccc(C(OC[C@H]2O[C@@H](n3cc(C)c(=O)[nH]c3=O)C[C@@H]2O)(c2ccccc2)c2ccc(OC)cc2)cc1 [R1 = R2 = c; R3 = a; T] | 60

Now from value to compound:

Row | t1/2 in ZnBr2 [s] | Compound
6 | 20 | COc1ccc(C(OC[C@H]2O[C@@H](n3cnc4c(=O)[nH]c(NC(=O)C(C)C)nc43)C[C@@H]2O)(c2ccccc2)c2ccc(OC)cc2)cc1 [R1 = R2 = c; R3 = a; G]
7 | 30 | COc1ccccc1C(OC[C@H]1O[C@@H](n2cc(C)c(=O)[nH]c2=O)C[C@@H]1O)(c1ccccc1OC)c1cccc2ccccc12 [R1 = R2 = b; R3 = n; T]
8 | 30 | COc1ccccc1C(OC[C@H]1O[C@@H](n2ccc(NC(=O)c3ccccc3)nc2=O)C[C@@H]1O)(c1ccccc1OC)c1cccc2ccccc12 [R1 = R2 = b; R3 = n; C]
9 | 20 | COc1ccc(C(OC[C@H]2O[C@@H](n3cnc4c(NC(=O)c5ccccc5)ncnc43)C[C@@H]2O)(c2ccccc2)c2ccc(OC)cc2)cc1 [R1 = R2 = c; R3 = a; A]
10 | 20 | COc1ccccc1C(OC[C@H]1O[C@@H](n2cnc3c(=O)[nH]c(NC(=O)C(C)C)nc32)C[C@@H]1O)(c1ccccc1)c1ccccc1OC [R1 = R2 = b; R3 = a; G]
